Data: US20100022559A1, “BISOXIMES AS FUNGICIDES” (BAYER CROPSCIENCE AG, priority 2006, published 2010)
Values belong to the compound of their own block, whether it stands above or below them.

Test: logP determination by HPLC on a reversed-phase column (C 18), EEC Directive 79/831 Annex V.A8
Type: physicochemical
Protocol: The stated logP values were determined in accordance with EEC Directive 79/831 Annex V.A8 by HPLC (high performance liquid chromatography) on a reversed-phase column (C 18). Temperature: 43° C.

[1] = method marker [b], isomer A / isomer B / isomer mixture as noted in the cell
[2] = method marker [a] (footnote not shown), isomer A / isomer B / isomer mixture as noted in the cell

- logP (method marked [b] in Table 1): 3.12^[b]
- logP (method marked [c] in Table 1): 7.09^[c]
Structure (SMILES): CC(=NOCC(CON=C(C)c1cc(C)cc(C)n1)C(C)C)c1cc(C)cc(C)n1 (centres unmarked) [Compound 682]

- logP (value marked [b]): 6.03^[b]
Structure (SMILES): C=C(CON=C(C)c1cccc(C)n1)CON=C(C)c1cccc(CC(C)C)n1 [compound 352]

- logP [1]: 3.64^[b]
Structure (SMILES): C=C(CON=C(C)c1ncccc1Cl)CON=C(C)c1ncccc1Cl [compound 144]

- logP (value marked [a]): 5.04^[a]
- logP (value marked [b]): 5.04^[b]
- logP (value marked [c]): 7.36^[c]
Structure (SMILES): CC(=NOC[Si](C)(CON=C(C)c1cc(C)cc(C)n1)C(C)C)c1cc(C)cc(C)n1 [Compound 836]

- logP (value marked [a]): 3.60^[a]
- logP (value marked [b]): 4.44^[b]
Structure (SMILES): CC(=NOC(C)C(C)C(C)ON=C(C)c1cc(C)cc(C)n1)c1cc(C)cc(C)n1 (mixture of isomers) [Compound 790]

- logP [1]: 3.09^[b]
Structure (SMILES): CC(=NOCC1OC(C)(C)OC1CON=C(C)c1cccc(C)n1)c1cccc(C)n1 (centres unmarked) [compound 215]

- logP [1]: 4.32^[b]
Structure (SMILES): C=C(CON=C(N)c1cc(Cl)cc(Cl)c1)CON=C(C)c1cccc(C)n1 [compound 190]

- logP (value marked [a]): 4.14^[a]
Structure (SMILES): CC(=NOCC(C)CON=C(C)c1ccc2c(n1)CCC2)c1ccc2c(n1)CCC2 (centres unmarked) [Compound 300]

- logP [1]: 1.75^[b]
Structure (SMILES): COCc1nc(/C(N)=N/OCCCCO/N=C(\N)c2nc(COC)c(C)c(COC)n2)nc(COC)c1C [compound 37]

- logP (method marked [b] in Table 1): 6.22^[b]
Structure (SMILES): CCCC(=NOCC1(CON=C(CCC)c2cccc(C)n2)CC(C(C)(C)C)=NO1)c1cccc(C)n1 (centres unmarked) [compound 620]

- logP [1]: 3.10^[b] (isomer A)
Structure (SMILES): C=C(CON=C(C)c1ccccn1)CON=C(C)c1cccc(C)n1 (single isomer, unassigned) [Compound 17]

- logP (method marked [a] in Table 1): 7.36^[a]
Structure (SMILES): CCc1cc(-c2ccccc2)cc(C(C)=NOCC(C)CON=C(C)c2cc(-c3ccccc3)cc(CC)n2)n1 (centres unmarked) [compound 692]

- logP (value marked [b]): 3.37^[b]
Structure (SMILES): COc1cc(C)nc(C(C)=NOCC(C)CON=C(C)c2cccc(C)n2)c1 (centres unmarked) [Compound 501]

- logP [2]: 1.78^a]
Structure (SMILES): CC(=NOCC(C)CON=C(C)c1cncc(C)c1)c1cncc(C)c1 (centres unmarked) [compound 166]

- logP (value marked [b]): 4.41^[b]
Structure (SMILES): CC(=NOCCCCCCON=C(C)c1cccc(C)n1)c1ccccn1 [compound 388]

- logP (value marked [b]): 2.37^[b]
Structure (SMILES): C=C(CON=C(C)c1cccc(C)n1)CON=C(C)c1nccc(C)n1 [compound 510]

- logP (value marked [a]): 2.00^[a]
- logP (value marked [c]): 6.90^[c]
Structure (SMILES): CCOc1cc(C)nc(C(C)=NOCC(C)(C)CON=C(C)c2cc(OCC)cc(C)n2)c1 [Compound 841]

- logP [2]: 7.36^[a]
Structure (SMILES): CC(=NOCCCON=C(C)c1cccc(CC(C)C)n1)c1cccc(CC(C)C)n1 [Compound 134]

- logP (value marked [b]): 6.58^[b]
Structure (SMILES): CC(=NOCCCCCCON=C(C)c1cccc(C)n1)c1cccc(Cl)c1 [compound 456]

- logP (method marked [b] in Table 1): 3.60^[b]
- logP (method marked [c] in Table 1): 7.36^[c]
Structure (SMILES): CC(=NOCC(CON=C(C)c1cc(C)cc(C)n1)C(C)(C)C)c1cc(C)cc(C)n1 (centres unmarked) [Compound 559]

- logP (method marked [b] in Table 1): 2.87^b]
- logP (method marked [c] in Table 1): 4.76^[c]
Structure (SMILES): CCOC(CON=C(C)c1cccc(C)n1)CON=C(C)c1cccc(C)n1 (centres unmarked) [Compound 586]

- logP (value marked [b]): 3.11^[b] (isomer B)
Structure (SMILES): C=C(CON=C(C)c1cccc(C)n1)CON=C(C)c1ncccc1C (single isomer, unassigned) [compound 478]

- logP (value marked [b]): 4.57^[b]
Structure (SMILES): COc1cccc(C(C)=NOCCCCON=C(C)c2cccc(C)n2)c1 [compound 443]

- logP [1]: 1.80^[b]
Structure (SMILES): C=C(CO/N=C(\N)c1nc(C)cc(C)n1)CO/N=C(\N)c1nc(C)cc(C)n1 [compound 8]

- logP (method marked [b] in Table 1): 7.36^[b]
- logP (method marked [c] in Table 1): 7.36^[c]
Structure (SMILES): CC(=NOCC(C)CON=C(C)c1cccc(-c2ccccc2)n1)c1cccc(-c2ccccc2)n1 (centres unmarked) [compound 563]

- logP (value marked [a]): 4.50^[a]
Structure (SMILES): C=C(CON=C(C#N)c1cc(C)cc(C)n1)CON=C(C#N)c1cc(C)cc(C)n1 [compound 830]

- logP (value marked [b]): 3.89^[b]
Structure (SMILES): C=C(CON=C(C)c1cccc(C)n1)CON=C(c1ccccc1)c1ncccc1C [compound 351]

- logP ([a] acidic range, pH 2.3, 0.1% aqueous phosphoric acid and acetonitrile): 1.12^[a]
Structure (SMILES): Cc1cccc(C(=NOCCCON)C(C)C)n1 [XII-1]

- logP (method marked [b] in Table 1): 2.51^[b]
Structure (SMILES): Cc1nc(/C(N)=N/OC/C=C/CO/N=C(\N)c2nc(C)c3c(n2)CCCC3)nc2c1CCCC2 [compound 721]

- logP (value marked [b]): 3.37^[b]
Structure (SMILES): CC(=NOCC(C)CON=C(C)c1ncccc1C)c1cccc(C)n1 (centres unmarked) [compound 503]

- logP (value marked [b]): 3.24^[b]
Structure (SMILES): CC(=NOCCCCON=C(Cc1ccccc1)c1ncccc1C)c1cccc(C)n1 [compound 528]

- logP ([b] LC-MS, acidic range, pH 2.7, 0.1% aqueous formic acid and acetonitrile): 1.35^[b]
- logP ([c] LC-MS, neutral range, pH 7.8, 0.001 molar aqueous ammonium bicarbonate solution and acetonitrile): 3.36^[c]
Structure (SMILES): C/C(=N\OCC(C)CON)c1cccc(-c2cccc(C)n2)n1 (racemic) [XII-5]

- logP (value marked [b]): 5.54^[b]
Structure (SMILES): CC(=NOCCCCON=C(C)c1cccc(C)n1)c1ccc(Cl)cc1 [compound 444]

- logP (value marked [a]): 4.58^[a]
Structure (SMILES): Cc1cccc(C(Cl)=NOCC(C)CON=C(Cl)c2cccc(C)n2)n1 (centres unmarked) [Compound 824]

- logP [2]: 4.23^[a] (isomer B)
Structure (SMILES): CCC(=NOCC(C)CON=C(CC)c1ncccc1C)c1ncccc1C (single isomer, unassigned) [compound 101]

- logP [1]: 5.37^[b]
Structure (SMILES): CC(=NOCCCCCCCON=C(C)c1cccc(C)n1)c1cccc(C)n1 [Compound 217]

- logP (value marked [b]): 4.57^[b]
Structure (SMILES): CC(=NOCC(C)CON=C(C)c1cccc(C)n1)c1ccc2c(c1)OCO2 (centres unmarked) [compound 435]

- logP (value marked [b]): 4.51^[b]
Structure (SMILES): CC(=NOCC(C)CON=C(CC(C)C)c1ncccc1C)c1cccc(C)n1 (centres unmarked) [compound 422]

- logP (value marked [b]): 3.41^[b]
Structure (SMILES): CC(=NOCC(C)CON=C(C)c1nc(C)c(C)c(C)n1)c1nc(C)c(C)c(C)n1 (centres unmarked) [Compound 266]

- logP [2]: 6.50^[a] (isomer B)
Structure (SMILES): Cc1cccnc1C(CC(C)C)=NOCC(C)CON=C(CC(C)C)c1ncccc1C (single isomer, unassigned) [compound 102]

- logP [2]: 3.58^[a] (isomer A)
Structure (SMILES): CCC(=NOCC(C)CON=C(CC)c1ncccc1C)c1ncccc1C (single isomer, unassigned) [compound 100]

- logP (method marked [b] in Table 1): 3.70^[b]
Structure (SMILES): CC(C)=CC1=NOC(CO/N=C(\C)c2cccc(C)n2)(CO/N=C(\C)c2cccc(C)n2)C1 [compound 604]

- logP (method marked [b] in Table 1): 3.06^[b]
Structure (SMILES): CC(=NOCC1(CON=C(C)c2ccc(C)c(C)n2)CC(C(C)C)=NO1)c1ccc(C)c(C)n1 (centres unmarked) [compound 627]

- logP (value marked [b]): 2.28^[b]
Structure (SMILES): CC(=NOCC1(CON=C(C)c2cccc(NCC3CC3)n2)CCC1)c1cccc(NCC2CC2)n1 [compound 850]

- logP (value marked [a]): 2.04^[a]
Structure (SMILES): CC(=NOC(=O)NCCCCNC(=O)ON=C(C)c1ccc(C)c(C)n1)c1ccc(C)c(C)n1 [compound 851]

- logP [1]: 2.75^[b]
Structure (SMILES): C=C(CON=C(C)c1cccc(C)n1)CON=C(N)c1cccc(C)n1 [Compound 23]

- logP (method marked [a] in Table 1): 1.71^[a]
Structure (SMILES): CCOc1cc(C)nc(C(C)=NOCC(C)CON=C(C)c2cc(OCC)cc(C)n2)c1 (centres unmarked) [Compound 683]

- logP (value marked [b]): 1.43^[b]
- logP (value marked [c]): 3,55^[c]
Structure (SMILES): CC(=NOCC1(CON=C(C)c2cc(C)cc(C)n2)COC(=O)N1)c1cc(C)cc(C)n1 (centres unmarked) [compound 858]

- logP [1]: 6.51^[b]
Structure (SMILES): CC(=NOCCON=C(C)c1cnc(-c2ccccc2)s1)c1cnc(-c2ccccc2)s1 [compound 48]

- logP (value marked [b]): 2.75^[b]
- logP (value marked [c]): 6.27^[c]
Structure (SMILES): CC(=NOCCC(C)ON=C(C)c1ccc(C)c(C)n1)c1ccc(C)c(C)n1 (centres unmarked) [Compound 519]

- logP (value marked [a]): 4.78^[a]
Structure (SMILES): CC(=NOCC(C)(C)CON=C(C)c1ccc2c(n1)CCC2)c1ccc2c(n1)CCC2 [Compound 301]

- logP [1]: 2.02^[b]
Structure (SMILES): C/C(=N\OCCOCOCCO/N=C(\C)c1cccc(C)n1)c1cccc(C)n1 [Compound 216]

- logP (method marked [b] in Table 1): 7.36^[b]
- logP (method marked [c] in Table 1): 7.36^[c]
Structure (SMILES): CC(=NOCC(C)CON=C(C)c1ccc2ccc(C)cc2n1)c1ccc2ccc(C)cc2n1 (centres unmarked) [compound 748]
